Reference: US12568972B2, “Pyridazinol compounds and derivatives, preparation methods, herbicidal compositions and applications thereof” (Qingdao Kingagroot Chemical Compound Co., Ltd., priority 2018, dated 2026)

Assays:
Assay in all cases: Post-emergence test, weed control effect
Format in all cases: in vivo
Chenopodiaceae = settings: after 3 weeks; for weed control effect, Chenopodiaceae (activity level): Dose 3000 g/ha
Summary of the method: (§1)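 Weeds grown from seed in soil-filled pots in a greenhouse were sprayed at the 2-3 leaf stage, 2-3 weeks after sowing, with compound in acetone/Tween-80/water plus 80% vegetable oil methyl ester synergist at 1500 g/ha. Fresh-weight inhibition was scored on a 0-10 scale after 3 weeks.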

Veronica polita = settings: after 3 weeks; for weed control effect, Veronica polita (activity level): Dose 3000 g/ha
Summary of the method: as §1

Amaranthus retroflexus = settings: after 3 weeks; for weed control effect, Amaranthus retroflexus (activity level): Dose 3000 g/ha
Summary of the method: as §1

Rorippa indica = settings: after 3 weeks; for weed control effect, Rorippa indica (activity level): Dose 3000 g/ha
Summary of the method: as §1

Row | Structure (SMILES) | weed control effect, Chenopodiaceae (activity level) (Chenopodiaceae) | weed control effect, Veronica polita (activity level) (Veronica polita) | weed control effect, Amaranthus retroflexus (activity level) (Amaranthus retroflexus) | weed control effect, Rorippa indica (activity level) (Rorippa indica) | weed control effect (activity level), Chenopodiaceae (Chenopodiaceae; dose 1000 g/ha) | weed control effect (activity level), Veronica polita (Veronica polita; dose 1000 g/ha) | weed control effect (activity level), Amaranthus retroflexus (Amaranthus retroflexus; dose 1000 g/ha) | weed control effect (activity level), Rorippa indica (Rorippa indica; dose 1000 g/ha) | other results
1 | O=S(Oc1cc(C(F)(F)F)nnc1-c1ccc(F)cc1)C(F)(F)F (stereo not drawn) [Compound 1-166] | 10 | 10 | 10 | 10 | – | – | – | – | –
2 | COP(=O)(OC)Oc1cc(C(F)(F)F)nnc1-c1ccc(F)c(Cl)c1 [Compound 1-167] | 10 | 10 | 10 | 10 | – | – | – | – | –
3 | CC(C)=NOc1cc(C(F)(F)F)nnc1-c1ccc(F)c(F)c1 [Compound 1-169] | 10 | 10 | 10 | 10 | – | – | – | – | –
4 | CC/C(C)=N\Oc1cc(C(F)(F)F)nnc1-c1ccc(C)cc1 [Compound 1-170] | 10 | 10 | 10 | 10 | – | – | – | – | –
5 | CCC/C(C)=N\Oc1cc(C(F)(F)F)nnc1-c1ccc(OC)cc1 [Compound 1-171] | 10 | 10 | 10 | 10 | – | – | – | – | –
6 | CCC/C=N\Oc1cc(C(F)(F)F)nnc1-c1ccc(F)cc1 [Compound 1-172] | 10 | 10 | 10 | 10 | – | – | – | – | –
7 | C/C(CC(C)C)=N/Oc1cc(C(F)(F)F)nnc1-c1cccc(C(F)(F)F)c1 [Compound 1-173] | 10 | 10 | 10 | 10 | – | – | – | – | –
8 | C/C(=N/Oc1cc(C(F)(F)F)nnc1-c1ccc(C)c(C)c1)C(C)(C)C [Compound 1-174] | 10 | 10 | 10 | 10 | – | – | – | – | –
9 | CCCC/C(C)=N\Oc1cc(C(F)(F)F)nnc1-c1ccc(S(C)(=O)=O)cc1 [Compound 1-175] | 10 | 10 | 10 | 10 | – | – | – | – | –
10 | CCCCCC/C(C)=N\Oc1cc(C(F)(F)F)nnc1-c1ccc(Cl)cc1Cl [Compound 1-176] | 10 | 10 | 10 | 10 | – | – | – | – | –
11 | CCCCC(CCCC)=NOc1cc(C(F)(F)F)nnc1-c1cccc([N+](=O)[O-])c1 [Compound 1-178] | 10 | 10 | 10 | 10 | – | – | – | – | –
12 | CC/C(CC(C)CC)=N/Oc1cc(C(F)(F)F)nnc1-c1ccnn1C (stereo not drawn) [Compound 1-179] | 10 | 10 | 10 | 10 | – | – | – | – | –
13 | CC(C)CC(CC(C)C)=NOc1cc(C(F)(F)F)nnc1-c1ccc(Cl)cc1 [Compound 1-180] | 10 | 10 | 10 | 10 | – | – | – | – | –
14 | CCCC(C)CC/C(C)=N\Oc1cc(C(F)(F)F)nnc1-c1ccccc1 (stereo not drawn) [Compound 1-181] | 10 | 10 | 10 | 10 | – | – | – | – | –
15 | CCOC(=O)CCCOc1cc(C(F)(F)F)nnc1-c1ccc(F)cc1 [Compound 1-207] | 10 | 10 | 10 | 10 | – | – | – | – | –
16 | Fc1ccc(-c2nnc(C(F)(F)F)cc2Oc2ccccc2)cc1F [Compound 1-208] | 10 | 10 | 10 | 10 | – | – | – | – | –
17 | Fc1ccc(-c2nnc(C(F)(F)F)cc2OCc2ccccc2)cc1 [Compound 1-209] | 10 | 10 | 10 | 10 | – | – | – | – | –
18 | Fc1ccc(-c2nnc(C(F)(F)F)cc2OCc2ccccc2)cc1F [Compound 1-210] | 10 | 10 | 10 | 10 | – | – | – | – | –

Row | Structure (SMILES) | weed control effect, Chenopodiaceae (activity level) (Chenopodiaceae) | weed control effect, Veronica polita (activity level) (Veronica polita) | weed control effect, Amaranthus retroflexus (activity level) (Amaranthus retroflexus) | weed control effect, Rorippa indica (activity level) (Rorippa indica) | weed control effect (activity level), Chenopodiaceae (Chenopodiaceae; dose 1000 g/ha) | weed control effect (activity level), Veronica polita (Veronica polita; dose 1000 g/ha) | weed control effect (activity level), Amaranthus retroflexus (Amaranthus retroflexus; dose 1000 g/ha) | weed control effect (activity level), Rorippa indica (Rorippa indica; dose 1000 g/ha) | other results
19 | COc1cc(Cl)c(COc2cc(C(F)(F)F)nnc2-c2ccc(F)cc2)cc1Cl [Compound 1-211] | 10 | 10 | 10 | 10 | – | – | – | – | –
20 | O=C(COc1cc(C(F)(F)F)nnc1-c1ccc(F)cc1)c1ccccc1 [Compound 1-212] | 10 | 10 | 10 | 10 | – | – | – | – | –
21 | O=C(COc1cc(C(F)(F)F)nnc1-c1ccc(F)c(F)c1)c1ccccc1 [Compound 1-213] | 10 | 10 | 10 | 10 | – | – | – | – | –
22 | CC(C)OC(=O)OC(C)Oc1cc(C(F)(F)F)nnc1-c1ccccc1 (stereo not drawn) [Compound 1-240] | 10 | 10 | 10 | 10 | – | – | – | – | –
23 | Cc1ccc(-c2nnc(C(F)(F)F)cc2O)cc1 [Compound 4] | – | – | – | – | – | – | – | – | weed control effect (activity level), Chenopodiaceae (Chenopodiaceae; dose 2000 g/ha): 8 (Level 8: above 80% growth inhibition rate); weed control effect (activity level), Veronica polita (Veronica polita; dose 2000 g/ha): 10; weed control effect (activity level), Amaranthus retroflexus (Amaranthus retroflexus; dose 2000 g/ha): 10; weed control effect (activity level), Rorippa indica (Rorippa indica; dose 2000 g/ha): 10
24 | CC(C)c1ccc(-c2nnc(C(F)(F)F)cc2O)cc1 [Compound 8] | – | – | – | – | – | – | – | – | weed control effect (activity level), Chenopodiaceae (Chenopodiaceae; dose 2000 g/ha): 8 (Level 8: above 80% growth inhibition rate); weed control effect (activity level), Veronica polita (Veronica polita; dose 2000 g/ha): 10; weed control effect (activity level), Amaranthus retroflexus (Amaranthus retroflexus; dose 2000 g/ha): 10; weed control effect (activity level), Rorippa indica (Rorippa indica; dose 2000 g/ha): 10
25 | Oc1cc(C(F)(F)F)nnc1-c1ccc(C2CC2)cc1 [Compound 24] | – | – | – | – | – | – | – | – | weed control effect (activity level), Chenopodiaceae (Chenopodiaceae; dose 2000 g/ha): 10; weed control effect (activity level), Veronica polita (Veronica polita; dose 2000 g/ha): 10; weed control effect (activity level), Amaranthus retroflexus (Amaranthus retroflexus; dose 2000 g/ha): 10; weed control effect (activity level), Rorippa indica (Rorippa indica; dose 2000 g/ha): 10
26 | Oc1cc(C(F)(F)F)nnc1-c1ccccc1F [Compound 26] | – | – | – | – | 10 | 10 | 10 | 10 | –
27 | Oc1cc(C(F)(F)F)nnc1-c1cccc(Cl)c1 [Compound 27] | – | – | – | – | 10 | 10 | 10 | 10 | –
28 | Oc1cc(C(F)(F)F)nnc1-c1ccc(Br)cc1 [Compound 28] | – | – | – | – | 10 | 10 | 10 | 10 | –
29 | Oc1cc(C(F)(F)F)nnc1-c1cccc(I)c1 [Compound 29] | – | – | – | – | 10 | 10 | 10 | 10 | –
30 | Oc1cc(C(F)(F)F)nnc1-c1ccccc1Cl [Compound 30] | – | – | – | – | 10 | 10 | 10 | 10 | –
31 | Oc1cc(C(F)(F)F)nnc1-c1cccc(Br)c1 [Compound 31] | – | – | – | – | 10 | 10 | 10 | 10 | –
32 | Oc1cc(C(F)(F)F)nnc1-c1ccc(I)cc1 [Compound 33] | – | – | – | – | 10 | 10 | 10 | 10 | –
33 | Oc1cc(C(F)(F)F)nnc1-c1cc(F)ccc1F [Compound 34] | – | – | – | – | 10 | 10 | 10 | 10 | –
34 | Oc1cc(C(F)(F)F)nnc1-c1c(F)cccc1F [Compound 36] | – | – | – | – | 10 | 10 | 10 | 10 | –
35 | Oc1cc(C(F)(F)F)nnc1-c1cc(Cl)ccc1Cl [Compound 37] | – | – | – | – | 10 | 10 | 10 | 10 | –
36 | Oc1cc(C(F)(F)F)nnc1-c1ccc(Cl)c(Cl)c1 [Compound 38] | – | – | – | – | 10 | 10 | 10 | 10 | –
